Reference: US20250314668A1, “DNAZYMES FOR SENSING AND IMAGING TARGET MOLECULES” (BOARD OF REGENTS, THE UNIVERSITY OF TEXAS SYSTEM, priority 2024, published 2025)
In the oligonucleotide strings, read from the 5' end, every base follows the letter of its sugar. An asterisk marks phosphorothioate; unmarked linkages are phosphodiester. Other units and linkages are bracketed, terminal groups are in braces. A string of capitals states the bases alone. d = 2'-deoxy (DNA); r = 2'-OH (RNA)

Assays:
HepG2 cells [1] = experiment: MTT assay of cytotoxicity of RSL3; format: cell-based; conditions: 1 μM RSL3, over 8 hours
Description: To measure the cytotoxicity of RSL3 to HepG2 cells, a standard MTT assay was used. HepG2 cells were seeded at a density of 15,000 cells per well in 96-well plates. When the cells grew to 80% confluence, the medium was replaced by the normal MEM containing 1 μM RSL3 at different time points (0, 2, 4, 6, 8, and 10 hours). Afterward, the cell medium was replaced by the iron-deficient MEM containing PEI-ErS or PEI-iErS, incubated in a 37° C., 5% CO2 incubator for another 4 hours. The absorbance at 570 nm was measured with a SpectraMax M2 microplate reader to obtain the MTT assay readings. The untreated cells were set as a blank control for normalization.

HepG2 cells [2] = experiment: Ferroptosis-induced fluctuations of labile Fe^2+ and Fe^3+ pools (RSL3); format: cell-based
Description: Ferroptosis-induced fluctuations of labile Fe^2+ and Fe^3+ pools: HepG2 cells were treated with 1 μM RSL3 in normal MEM at different time points (0, 2, 4, 6, 8, and 10 hours). Then, the cell medium was replaced by iron-deficient MEM containing PEI-ErS or PEI-iErS and incubated in a 37° C., 5% CO2 incubator for another 4 hours. Before imaging, the cells were stained by LysoTracker Red and Hoechst 33258 for 15 min. After washing with PBS, the cells were incubated in iron-deficient MEM during the imaging.

cultured cell lines = experiment: Iron redox changes in cultured cell lines with ferroptosis inducers and NCOA4 regulators; format: cell-based
SH-SY5Y cells = experiment: Cell death in FDX1 regulated SH-SY5Y cells with Aβ-Cu treatment; format: cell-based; conditions: FDX1 knocked down cells; 25 µM Tempol or 100 μM Trolox
From the text: FIGS. 21A-21C depict cell death in FDX1 regulated SH-SY5Y cells with Aβ-Cu treatment. […] For all graphs, ****p<0.0001, ***p<0.001, **p<0.01, and ns is p>0.05.
Both oxidative stresses and proteotoxic stresses mediated cuproptosis were also observed in neurons during copper overload by elesclomol (ES), which is a copper ionophore, contributing to neuronal death. The high redox properties of copper can promote the Aβ-induced oxidative stress and subsequent neuronal death. […] The hypothesis is that the property of Aβ can be acted as a copper ionophore is part of what contributes to the pathological effects of cuproptosis in AD. To explore more about whether cuproptosis is related to AD neurodegeneration and understand the role of Aβ-Cu in neuronal death, the viability of SH-SY5Y cells with FDX1 knocked down by RNAi were monitored by stimulating with different CuCl2 concentration and 10 μM Aβ for overnight. […] Cu^2+ ions bound to Aβ are consistently more toxic to neuronal cells than Aβ in the absence of Cu^2+ ions.

[3] = test system: corpus callosum brain region; experiment: Iron changes in the cuprizone model of Multiple Sclerosis; format: in vivo, mice; conditions: over the course of cuprizone treatment; back to normal upon removal
Description: The study also co-stained the sensors with other antibodies to identify cell identities in neuron degenerative diseases, such as Alzheimer's disease. The antibody staining was performed before staining iron sensors. After traditional immunochemistry staining (need to avoid antigen exposures that require H2O2 or other oxidative reagents), brain slices were changed into the BisTris buffer for iron sensors and incubated with iron sensors for 30 minutes. Then the brain slices were mounted onto slices and imaged immediately to minimize the background cleavage or degradation of the sensors. The iron redox changes in specific cell types were evaluated by taking images with a confocal microscope and analyzing the iron signal that colocalized with specific antibodies. […] The study also observed a decrease in iron levels in microglial cells of wildtype mice brains in the hippocampal region, but an increase in iron levels in 3×Tg mice brains. […] More detailed investigations are still going on to test how they are correlated with this disease process.
With a similar technique, the iron changes were studied with the cuprizone model of Multiple Sclerosis as well. […] The Fe^3+/Fe^2+ elevation was back to normal upon the removal of the chemical, and remyelination of the mice brains.

[4] = Fluorescence based activity assay of Cu^2+ sensor; format: biochemical; conditions: fluorescence at 520 nm, 30 min
Description: (§1) Fluorescence based activity assay: For Cu^+ sensor, […] of Cu1 aS Cy5 and 9 µM of Cu1 aE Q were annealed in a buffer of 50 mM Bis-Tris, 150 mM NaCl, pH 7.5. For each test, 2 μL of the annealed sensor was diluted into 194 μL of buffer (50 mM Bis-Tris, 150 mM NaCl, pH 7.5), and 2 μL of 5 mM ascorbate was added. Then 2 μL of 2 μl different concentration of Cu^2+ were added. The signaling kinetics were monitored (Ex=635 nm; Em=666 nm) using Hitachi fluorimeter. For Cu^2+ sensor, the DNAzyme complex was formed by annealing the 5 μM of Cu2 PSrS FAM and 7.5 μM Cu2 aE Q in 50 mM MES, 25 mM NaCl, pH 6.0. For each well, 2 μL of the annealed sensor was diluted into 196 μL of buffer (50 mM MES, 25 mM NaCl, pH 6.0). 2 μL different concentration of Cu^2+ were added to initiate cleavage reaction, and the signaling kinetics were monitored (Ex=488 nm; Em=520 nm) using Hitachi fluorimeter.

[5] = Gel based activity assay of Cu^2+ DNAzyme; format: biochemical
Description: (§2) FIG. 10 depicts gel and fluorescence-based activity assay for Cu^+ and Cu^2+ DNAzyme. PAGE Gel images of Cu^+ DNAzyme cleaving the substrate in the presence of various concentrations of Cut. Lane 1: Cu^+ aS, Lane 2: Cu^+ aE, Lane 3-10: the concentration of Cu^2+ is 0 nM, 125 nM, 250 nM, 500 nM, 1 μM, 2 μM, 4 μM, and 8 μM, respectively, the concentration of ascorbate is 50 μM. Quantification of Cu^+. Inset is the linear response at low Cu^+ concentrations. denaturing gel images of Cu^2+ DNAzyme cleaving the substrate in the presence of various concentrations of Cu^2+. Lane1-8: the concentration of Cu^2+ is 0 μM, 1 μM, 2 μM, 4 μM, 6 μM, 8 μM, 10 μM, and 20 μM, respectively. Quantification of Cu^2+. Inset: the linear response at low Cu^2+ concentrations.
(§3) Gel based activity assays: For Cu^+ DNAzyme, 1 μM of Cu1 aS and 2 μM of Cu1 aE were added in 50 mM Bis-Tris, 150 mM NaCl, pH 7.5. The solution was heated at 90° C. for 5 min and slowly cooled down to room temperature for more than 1 h to anneal the DNAzyme. After annealing, each sample contains a final of 5 μL of 0.25 μM DNAzyme complex. 2 ul of 50 μM of freshly prepared ascorbate was mixed with DNAzyme complex. After adding 2 μl different concentration of Cu^2+, incubated at room temperature for 60 min. […] The gels were analyzed with Bio-Rad Gel Doc 2000 imaging system.

HepG2 or Hela cells = experiment: Simultaneous imaging of labile Fe^2+ and Fe^3+ in living cells treated with Tf or DFO; format: cell-based
Description: For delivery of DNAzyme sensors using PEI (66, 67), the corresponding Fe(II)-H5-ErS, Fe(II)-H5-iErS, Fe(III)-B12-ErS, and Fe(III)-B12-iErS (final concentration of 10 μM) were mixed in the Fe^2+ buffer and Fe^3+ buffer separately. The mixtures were annealed at 95° C. for 5 min and stored at room temperature to allow full hybridization. PEI (25 kDa) was dissolved in water at 1 mg/ml. […] The normal cell medium was replaced with iron-deficient medium before the PEI-ErS or PEI-iErS was added to the cells grown in the plates.
After incubating HepG2 cells with PEI-ErS or PEI-iErS complex for 4 hours, cells were washed with phosphate-buffered saline (PBS) twice to remove excess amounts of complexes in medium. Then, the cells were stained by Hoechst 33258 for 15 min. Images were obtained using a Zeiss LSM 880 confocal microscope at 63× oil objective lens with numerical aperture 1.40 and immersion medium Immersol 518 F (Zeiss) at the UIUC IGB Core Facilities. Florescence emission of Hoechst 33258 was measured over 450 to 500 nm with excitation at 401 nm. Fe(II)-H5 was excited by 488 nm and measured over 500 to 550 nm, and Fe(III)-B12 was excited at 633 nm and measured over 640 to 700 nm. A laser power of 67% and pinhole size of 1 […] (AU) were used for the cellular images. Acquired images were analyzed by ImageJ using JACoP (88, 89). No background subtraction, Z-stacks, Gaussian blur filter, or change thresholds were performed for visualizing the figures. For cell fluorescence quantification, the study quantified the average fluorescence signals intensity in five cells (for TurboFect transfected cells) or five LysoTracker-labeled regions in different cells (for PEI transfected cells), per picture and three pictures per group with Image J (88), for the statistical comparison between groups.
Simultaneous imaging of labile Fe^2+ and Fe^3+ in living cells: HepG2 or Hela cells were cultured in glass-bottom dishes until about 70% confluence. The cells were pretreated with iron-deficient MEM containing either 100 μM DFO, 100 μM ferric ammonium citrate, […] holo-Tf, or 50 μM Tf for 4 hours, and then, the medium was replaced with an iron-deficient MEM containing PEI-ErS or PEI-iErS complexes or Opti-MEM containing 1 μl of TurboFect transfection reagent as described above for 4 hours. Before imaging, the cells were stained by LysoTracker Red and Hoechst 33258 for 15 min. After washing with PBS, the cells were incubated in iron-deficient MEM or regular DMEM, respectively, during the imaging.
Data processing and statistical analysis: To have a direct comparison of the iron amount between groups, the background signals were normalized by subtracting the fluorescence signals in iErS groups from the ErS groups (F-F0). No Z-stacks or change thresholds were used for statistical analysis. Graphs were plotted with GraphPad (GraphPad Software Inc.) or Origin (OriginLabs Corporation) and correspond to a single experiment. Bars represent means±SEM. Two-tailed distribution and two-sample equal variance t test were used for analyzing significance. Dixon's Q tests were performed to identify and exclude outliners. *P<0.05, **P<0.01, and ***P <0.001. […] The presented data described the quantification from single representative replicates from those biological replicates.

cells = experiment: Fe signal changes detected with DNAzyme sensors and flow cytometry; format: cell-based; conditions: treated with Transferrin
From the text: Preliminary results: The study detected the Fe signal changes with DNAzyme sensors and flow cytometry.

[6] = Gel based activity assay of Cu^+ DNAzyme; format: biochemical
Description: as §2, §3

[7] = Fluorescence based activity assay of Cu^+ sensor; format: biochemical; conditions: fluorescence at 666 nm, 30 min
Description: as §1

[8] = 5 μM Tf group, iron-deficient medium

## COC(=O)c1ccc([C@@H]2c3[nH]c4ccccc4c3C[C@@H](C(=O)OC)N2C(=O)CCl)cc1 [RSL3, RAS-selective lethal 3]
HepG2 cells [1]
  MTT assay result: cell death
HepG2 cells [2]; 1 μM RSL3, from 0 to 2 hours, LysoTracker-labeled region
  increase of Fe^2+: 2.3 fold
HepG2 cells [2]; 1 μM RSL3, from 0 to 4 hours, LysoTracker-labeled region
  increase of Fe^3+: 2.8 fold
HepG2 cells [2]; 1 μM RSL3, from 2 to 4 hours, LysoTracker-labeled region
  increase of Fe^2+: 4.3 fold
HepG2 cells [2]; RSL3-induced ferroptosis, endo-lysosomes
  Fe^3+/Fe^2+ ratio (Fe redox) during ferroptosis: continuous decrease
HepG2 cells [2]; after 4 hours
  Fe^2+ and Fe^3+ levels in later stage of ferroptosis: both iron levels decreased
Cultured cell lines
  Fe^2+ and Fe^3+ during induced ferroptosis: increased
  Fe^3+/Fe^2+ ratio during induced ferroptosis: decreased

## CC1(C)CC(O)CC(C)(C)N1[O] [Tempol]
SH-SY5Y cells
  rescue of Aβ-Cu induced cell death by ROS scavenger: fail to fully rescue

## Cc1c(C)c2c(c(C)c1O)CCC(C)(C(=O)O)O2 (stereo not shown) [Trolox]
SH-SY5Y cells
  rescue of Aβ-Cu induced cell death by ROS scavenger: fail to fully rescue

## O=C(NN=C1CCCCC1)C(=O)NN=C1CCCCC1 [cuprizone]
[3]
  iron redox (Fe^3+/Fe^2+) in corpus callosum: elevated iron redox

## Cu^2+ DNAzyme: substrate strand Cu2 PSrS annealed with enzyme strand Cu2 aE (chain 1 dAdGdTdCdAdCdTdAdTrA*dGdGdAdAdGdAdTdGdGdCdGdAdAdA; chain 2 TTTCGCCATCTTCACCAGGAAATAGTGACT; chain 2: unmodified DNA)
[4]
  detection limit: 35.16 nM
[5]
  activity with high ascorbic: no activity
  selectivity between copper oxidation states: excellent selectivity

## transferrin [Tf]
HepG2 or Hela cells; [8]
  increase of Fe^2+ sensor signal: 1.9 fold
  increase of Fe^3+ sensor signal: 1.6 fold
HepG2 or Hela cells; normal cell media
  increase for both Fe^3+ and Fe^2+: around 4 fold
HepG2 or Hela cells; treated cells
  change of the Fe^3+/Fe^2+ ratio: No significant change
cells
  cells with elevated fluorescence intensity (moved from Q4 to Q2): More than 20%

B1: Cu^+ DNAzyme: substrate strand Cu1 aS annealed with enzyme strand Cu1 aE (nucleic acid)
chain 1: AGCTTCTTTCTAATACGGCTTACCAC
chain 2: GTGGTAAGCCTGGGCCTCTTTCTTTTTAAGAAAGAAC
modifications: DNA, backbone not given here; Cy5 on substrate, Iowa Black RQ on enzyme, further chemistry not fully specified
notes: substrate strand Cu1 aS annealed with enzyme strand Cu1 aE
[6]
  selectivity between copper oxidation states: excellent selectivity
[6]; no cleavage products at low concentrations of ascorbic
  cleavage dependence on ascorbic: ascorbic concentration dependent cleavage
[7]
  detection limit: 53.92 nM
